Experimental data reported in ChEMBL document CHEMBL5634135, “Design, synthesis, and biological evaluation of quinoline-piperazine/pyrrolidine derivatives as possible antileishmanial agents” (Eur J Med Chem, 2023).
The source made the active and inactive calls. No cut-off for these calls is given here.

Legend:
Leishmania donovani [1] = assay: Antileishmanial activity against amastigote form of luciferase expressing Leishmania donovani MHOM/IN/80/Dd8 infected in mouse J774.A1 cells assessed as inhibition of parasite growth measured after 72 hrs by luciferase reporter gene assay; type: functional, organism-based; details: MHOM/IN/80/Dd8, J774.A1, 72 h
[2] = Cytotoxicity against mouse J774.A1 cells assessed as reduction in cell viability incubated for 48 hrs by MTT assay; type: toxicity, cell-based
[3] = Safety index, ratio of CC50 for cytotoxicity against mouse J774.A1 cells to IC50 for antileishmanial activity against amastigote form of luciferase expressing Leishmania donovani MHOM/IN/80/Dd8 infected in mouse J774.A1; type: toxicity, cell-based; details: read-out: Ratio CC50/IC50
Leishmania donovani [4] = assay: Antileishmanial activity against amastigote form of Leishmania donovani infected in golden hamster assessed as reduction in parasite load in spleen at 50 mg/kg, ip administered for 5 days and measured on day 7 post-drug treatment by Giemsa staining based analysis; type: functional; details: 288 h, time 12 day
Leishmania donovani [5] = assay: Antileishmanial activity against amastigote form of Leishmania donovani infected in golden hamster assessed as reduction in parasite load in spleen at 50 mg/kg, ip administered for 5 days and measured on day 28 post-dug treatment by Giemsa staining based analysis; type: functional; details: 792 h, time 33 day
[6] = Toxicity against golden hamster infected with amastigote form of Leishmania donovani assessed as skin rashes at 50 mg/kg, ip administered for 5 days; type: organism-based, Mesocricetus auratus; details: in vivo, 120 h, time 5 day
[7] = Toxicity against golden hamster infected with amastigote form of Leishmania donovani assessed as discomfort at 50 mg/kg, ip administered for 5 days; type: organism-based, Mesocricetus auratus; details: in vivo, 120 h, time 5 day
[8] = Toxicity against golden hamster infected with amastigote form of Leishmania donovani assessed as animal's death at 50 mg/kg, ip administered for 5 days; type: organism-based, Mesocricetus auratus; details: in vivo, 120 h, time 5 day
[9] = Cmax in golden hamster at 50 mg/kg, ip measured for 24 hrs by LC-MS/MS analysis; type: ADME, organism-based, Mesocricetus auratus; details: in vivo
[10] = Tmax in golden hamster at 50 mg/kg, ip measured for 24 hrs by LC-MS/MS analysis; type: ADME, organism-based, Mesocricetus auratus; details: in vivo
[11] = AUC in golden hamster at 50 mg/kg, ip measured for 24 hrs by LC-MS/MS analysis; type: ADME, organism-based, Mesocricetus auratus; details: in vivo
[12] = Half life in golden hamster at 50 mg/kg, ip measured for 24 hrs by LC-MS/MS analysis; type: ADME, organism-based, Mesocricetus auratus; details: in vivo
[13] = Clearance in golden hamster at 50 mg/kg, ip measured for 24 hrs by LC-MS/MS analysis; type: ADME, organism-based, Mesocricetus auratus; details: in vivo
[14] = Volume of distribution in golden hamster at 50 mg/kg, ip measured for 24 hrs by LC-MS/MS analysis; type: ADME, organism-based, Mesocricetus auratus; details: in vivo
[15] = MRT in golden hamster at 50 mg/kg, ip measured for 24 hrs by LC-MS/MS analysis; type: ADME, organism-based, Mesocricetus auratus; details: in vivo
Leishmania donovani [16] = assay: Antileishmanial activity against amastigote form of luciferase expressing Leishmania donovani MHOM/IN/80/Dd8 infected in mouse J774.A1 cells assessed as inhibition of parasite growth at 50 uM measured after 72 hrs by luciferase reporter gene assay; type: functional, organism-based
Leishmania infantum [17] = assay: Antileishmanial activity against promastigote form of Leishmania infantum BCN150 overexpressing iRFP assessed as inhibition of parasite growth measured after 52 hrs; type: functional, organism-based; details: BCN150, 52 h
Leishmania infantum [18] = assay: Antileishmanial activity against amastigote form of Leishmania infantum BCN150 overexpressing iRFP assessed as inhibition of parasite growth measured after 52 hrs; type: functional, organism-based; details: BCN150, 52 h
Leishmania donovani [19] = assay: Antileishmanial activity against Leishmania donovani assessed as inhibition of parasite growth; type: functional, organism-based

Structure (SMILES)	IC50 (Leishmania donovani [1]) [µM]	CC50 at 48 h [2] [µM]	selectivity ratio [3]	inhibition (Leishmania donovani [16])	other results
OC(COc1ccc(-c2cc(-c3ccccc3Cl)c3cc(Cl)ccc3n2)cc1)CN1CCN(c2cccc(Cl)c2Cl)CC1 (stereo not drawn)	5.39	63.5	11.8		inhibition in vivo at 50 mg/kg (Leishmania donovani [4]): 40.7%; inhibition in vivo at 50 mg/kg (Leishmania donovani [5]): 56.3%; Activity [6]: Non-Toxic; Activity [7]: Non-Toxic; Activity [8]: Non-Toxic; Cmax [9]: 9930 ng/mL; Tmax [10]: 2 h; AUC at 24 h [11]: 32900 ng·h/mL; half-life [12]: 5 h; CL/F [13]: 25.8 mL/min/kg; Vd [14]: 11.25 L/kg; MRT [15]: 5.56 h
OC(COc1ccc(-c2cc(-c3ccccc3F)c3cc(Cl)ccc3n2)cc1)CN1CCCC1 (stereo not drawn)	2.4	22.7	9.41		
OC(COc1ccc(-c2cc(-c3ccccc3)c3cc(Cl)ccc3n2)cc1)CN1CCCC1 (stereo not drawn)	2.09	21.4	10.3		inhibition in vivo at 50 mg/kg (Leishmania donovani [4]): 27.8%; inhibition in vivo at 50 mg/kg (Leishmania donovani [5]): 49.3%; Activity [6]: Non-Toxic; Activity [7]: Non-Toxic; Activity [8]: Non-Toxic; Cmax [9]: 17600 ng/mL; Tmax [10]: 2 h; AUC at 24 h [11]: 85000 ng·h/mL; half-life [12]: 4.67 h; CL/F [13]: 9.5 mL/min/kg; Vd [14]: 3.88 L/kg; MRT [15]: 6.35 h
OC(COc1ccc(-c2cc(-c3ccccc3Cl)c3cc(Cl)ccc3n2)cc1)CN1CCN(c2ccccc2Cl)CC1 (stereo not drawn)				inactive	
NC(=O)C1CCN(CC(O)COc2ccc(-c3cc(-c4ccccc4)c4ccccc4n3)cc2)CC1 (stereo not drawn)				inactive	
Cc1ccc2c(-c3ccccc3)cc(-c3ccc(OCC(O)CN4CCCC4)cc3)nc2c1 (stereo not drawn)				inactive	
COc1ccccc1N1CCN(C(=O)CN(Cc2ccccc2)c2ccc(Cl)cc2)CC1					IC50 (Leishmania infantum [17]): 3.61 µM; IC50 (Leishmania infantum [18]): 44.1 µM
OC(COc1ccc(-c2cc(-c3ccccc3)c3ccccc3n2)cc1)Cn1cncn1 (stereo not drawn)				inactive	
O=C(c1ccco1)N1CCN(CC(O)COc2ccc(-c3cc(-c4ccccc4)c4cc(Cl)ccc4n3)cc2)CC1 (stereo not drawn)	8.13	57.8	7.1		
O=[N+]([O-])c1ccc2nc(-c3ccc(OCC(O)CN4CCN(c5cccc(Cl)c5Cl)CC4)cc3)cc(-c3ccccc3)c2c1 (stereo not drawn)				inactive	
OC(COc1ccc(-c2cc(-c3ccccc3Cl)c3cc(Cl)ccc3n2)cc1)CN1CCN(c2ccccc2F)CC1 (stereo not drawn)				inactive	
O=C(c1ccco1)N1CCN(CC(O)COc2ccc(-c3cc(-c4ccccc4Cl)c4cc(Cl)ccc4n3)cc2)CC1 (stereo not drawn)				inactive	
Cc1ncc([N+](=O)[O-])n1CC(O)COc1ccc(-c2cc(-c3ccccc3)c3ccccc3n2)cc1 (stereo not drawn)				inactive	
Cc1ccc2c(-c3ccccc3)cc(-c3ccc(OCC(O)CN4CCN(c5cccc(Cl)c5Cl)CC4)cc3)nc2c1 (stereo not drawn)				inactive	
OC(COc1ccc(-c2cc(-c3ccccc3Cl)c3cc(Cl)ccc3n2)cc1)CN1CCN(c2ccccc2)CC1 (stereo not drawn)				inactive	
NC(CC(=O)N1CC(CO)C(c2ccc(Cl)cc2)C1)Cc1ccc(Cl)cc1 (stereo not drawn)					IC50 (Leishmania donovani [19]): 0.093 µM
OC(COc1ccc(-c2cc(-c3ccccc3)c3ccccc3n2)cc1)CN1CCCC1 (stereo not drawn)	4.38	20.8	4.73		
COc1ccc(N2CCN(CC(O)COc3ccc(-c4cc(-c5ccccc5Cl)c5cc(Cl)ccc5n4)cc3)CC2)cc1 (stereo not drawn)				inactive	
OC(COc1ccc(-c2ccc3ccccc3n2)cc1)CN1CCN(c2cccc(Cl)c2Cl)CC1 (stereo not drawn)				inactive	

Structure (SMILES)	IC50 (Leishmania donovani [1]) [µM]	CC50 at 48 h [2] [µM]	selectivity ratio [3]	inhibition (Leishmania donovani [16])	other results
OC(COc1ccc(-c2cc(-c3ccccc3)c3cc(Cl)ccc3n2)cc1)CN1CCN(c2ccccc2)CC1 (stereo not drawn)				inactive	
OC(COc1ccc(-c2cc(-c3ccccc3)c3ccccc3n2)cc1)CN1CCN(c2ccccn2)CC1 (stereo not drawn)	7.01	27.2	3.88		
OC(COc1ccc(-c2cc(-c3ccccc3)c3ccccc3n2)cc1)CN1CCN(c2ccccc2)CC1 (stereo not drawn)	5.39	21.5	3.98		
OC(COc1ccc(-c2cc(-c3ccccc3)c3ccccc3n2)cc1)CN1CCN(c2ccccc2F)CC1 (stereo not drawn)				inactive	
OC(COc1ccc(-c2cc(-c3ccccc3F)c3cc(Cl)ccc3n2)cc1)CN1CCN(c2cccc(Cl)c2Cl)CC1 (stereo not drawn)				inactive	
O=C(c1ccco1)N1CCN(CC(O)COc2ccc(-c3cc(-c4ccccc4)c4ccccc4n3)cc2)CC1 (stereo not drawn)	8.22	21.8	2.64		
OC(COc1ccc(-c2cc(-c3ccccc3)c3ccc(Br)cc3n2)cc1)CN1CCN(c2cccc(Cl)c2Cl)CC1 (stereo not drawn)				inactive	
Cc1ccc(Cl)cc1N1CCN(CC(O)COc2ccc(-c3cc(-c4ccccc4Cl)c4cc(Cl)ccc4n3)cc2)CC1 (stereo not drawn)				inactive	
Cc1ccc(Cl)cc1N1CCN(CC(O)COc2ccc(-c3cc(-c4ccccc4)c4ccccc4n3)cc2)CC1 (stereo not drawn)				inactive	
CCCCCCCCCCCCCCCCOP(=O)([O-])OCC[N+](C)(C)C [MILTEFOSINE]	9.25		5.76		
OC(COc1ccc(-c2cc(-c3ccccc3)c3ccc(Br)cc3n2)cc1)CN1CCCC1 (stereo not drawn)	5.32	49.7	9.34		
OC(COc1ccc(-c2cc(-c3ccccc3)c3cc(Cl)ccc3n2)cc1)CN1CCN(c2cccc(Cl)c2Cl)CC1 (stereo not drawn)				inactive	
CCOC(=O)N1CCN(CC(O)COc2ccc(-c3cc(-c4ccccc4)c4cc(Cl)ccc4n3)cc2)CC1 (stereo not drawn)				inactive	
Cc1cc(-c2ccc(OCC(O)CN3CCN(c4cccc(Cl)c4Cl)CC3)cc2)nc2ccccc12 (stereo not drawn)				inactive	
OC(COc1ccc(-c2cc(-c3ccccc3)c3ccccc3n2)cc1)Cn1ccnc1 (stereo not drawn)	3.37	34	10.1		
O=[N+]([O-])c1ccc2nc(-c3ccc(OCC(O)CN4CCCC4)cc3)cc(-c3ccccc3)c2c1 (stereo not drawn)				inactive	
OC(COc1ccc(-c2ccc3ccccc3n2)cc1)CN1CCCC1 (stereo not drawn)	8.89	54.7	6.15		
OC(COc1ccc(-c2cc(-c3ccccc3Cl)c3cc(Cl)ccc3n2)cc1)CN1CCN(c2ccccn2)CC1 (stereo not drawn)	5.56	41.9	7.52		
OC(COc1ccc(-c2cc(-c3ccccc3)c3ccccc3n2)cc1)CN1CCN(c2cccc(Cl)c2Cl)CC1 (stereo not drawn)				inactive	
